Where a name gives a salt, the structure may show the parent alone.

In US8178668B2, “2-aminopyridine kinase inhibitors” (OSI Pharmaceuticals, LLC, priority 2008, dated 2012) one finds IC50 data, which are given here for 23 molecules.

Assay [1] concerns the target RON (human) (Homo sapiens, UniProt Q04912). Nature of the assay: RON kinase AlphaScreen assay (Km of ATP). Type of assay: biochemical. The settings on record: ATP at Km; at least duplicate experiments. The method, then:
(§1) Person skilled in the art will appreciate that a variety of assay formats may be used to determine the activity of the compounds of this invention. For example, AlphaScreen (Amplified Luminescent Proximity Homogeneous Assay) technology was used with the kinases described below. Assay ATP concentrations for individual kinases are included in the text.
RON (human)—Km of ATP: RON assay is performed in a 384 well assay containing 200 ng/μL biotinylated poly(Glu,Tyr), 0.334 mM vanadate, desired concentration of ATP optimized for the enzyme in assay buffer (50 mM HEPES (pH=7.4), 12.5 mM MgCl2 and 1% glycerol). Desired compound is added in a final concentration of 1% DMSO with control being vehicle of DMSO alone. RON is diluted to the optimized (on a lot-by-lot basis) concentration in an enzyme diluent buffer (50 mM HEPES pH=7.4, 12.5 mM MgCl2 and 1% glycerol, 0.03% Brij35, 0.3 mM EGTA, lmM DTT, and 0.003% BSA). Enzyme is added to initiate the reaction and incubated for 30 min at RT. In subdued light, appropriate amount of PT66 donor and acceptor beads (diluted 1:260 from manufacturer's provision in a 25 mM Tris HCl (pH=7.5), 200 mM NaCl, 100 mM EDTA, 0.3% BSA buffer) are added to the wells. The plates, incubated for 1 h, are read on an AlphaQuest plate reader.

In assay [2] the target is MET (human) (Homo sapiens, UniProt P08581). Nature of the assay: MET kinase AlphaScreen assay (Km of ATP). The assay is classed as biochemical. The note with it: ATP at Km; at least duplicate experiments. On the procedure: as §1
MET (human), sequence (P08581 25-1390): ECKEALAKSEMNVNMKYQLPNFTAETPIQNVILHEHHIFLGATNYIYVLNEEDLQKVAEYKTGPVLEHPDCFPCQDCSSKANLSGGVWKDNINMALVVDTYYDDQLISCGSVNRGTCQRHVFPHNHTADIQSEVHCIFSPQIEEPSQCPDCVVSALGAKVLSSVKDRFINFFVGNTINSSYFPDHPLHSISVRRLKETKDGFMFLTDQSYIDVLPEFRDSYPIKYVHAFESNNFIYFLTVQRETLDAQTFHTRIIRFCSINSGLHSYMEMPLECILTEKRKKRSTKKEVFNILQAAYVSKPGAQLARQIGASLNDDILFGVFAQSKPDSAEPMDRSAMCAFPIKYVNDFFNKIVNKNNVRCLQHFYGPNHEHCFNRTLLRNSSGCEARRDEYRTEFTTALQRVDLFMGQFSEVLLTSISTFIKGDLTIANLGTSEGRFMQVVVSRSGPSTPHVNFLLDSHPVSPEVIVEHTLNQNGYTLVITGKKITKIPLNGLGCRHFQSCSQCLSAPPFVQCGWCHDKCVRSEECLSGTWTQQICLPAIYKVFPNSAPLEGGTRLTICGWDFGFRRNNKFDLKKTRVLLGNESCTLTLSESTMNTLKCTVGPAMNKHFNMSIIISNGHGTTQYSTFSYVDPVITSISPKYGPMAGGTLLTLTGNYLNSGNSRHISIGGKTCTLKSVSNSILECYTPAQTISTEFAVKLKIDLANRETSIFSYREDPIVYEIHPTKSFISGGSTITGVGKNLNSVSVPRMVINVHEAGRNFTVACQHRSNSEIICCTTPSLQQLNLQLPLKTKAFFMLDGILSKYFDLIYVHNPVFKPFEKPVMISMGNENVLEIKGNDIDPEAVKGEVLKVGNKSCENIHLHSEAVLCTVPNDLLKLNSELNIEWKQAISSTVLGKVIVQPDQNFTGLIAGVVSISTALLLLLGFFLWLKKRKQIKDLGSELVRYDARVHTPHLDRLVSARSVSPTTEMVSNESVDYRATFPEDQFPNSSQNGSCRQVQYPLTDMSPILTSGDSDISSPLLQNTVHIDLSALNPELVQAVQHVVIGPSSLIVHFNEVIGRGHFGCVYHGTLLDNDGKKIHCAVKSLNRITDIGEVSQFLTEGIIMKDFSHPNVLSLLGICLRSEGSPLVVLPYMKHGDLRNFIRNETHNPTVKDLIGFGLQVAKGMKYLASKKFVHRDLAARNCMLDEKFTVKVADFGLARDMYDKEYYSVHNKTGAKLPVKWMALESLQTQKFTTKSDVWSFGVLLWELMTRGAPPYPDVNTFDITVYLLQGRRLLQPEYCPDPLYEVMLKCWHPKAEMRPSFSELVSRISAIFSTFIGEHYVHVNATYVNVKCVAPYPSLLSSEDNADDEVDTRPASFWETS
MET (human)—Km of ATP: MET assay is performed in a 384 well assay containing 200 ng/μL biotinylated poly(Glu,Tyr), 0.334 mM vanadate, desired concentration of ATP optimized for the enzyme in assay buffer (50 mM HEPES (pH=7.4), 5 mM MgCl2, 5 mM MnCl2, and 1% glycerol). Desired compound is added in a final concentration of 1% DMSO with control being vehicle of DMSO alone. MET is diluted to the optimized concentration (optimized on a lot-by-lot basis) in an enzyme diluent buffer (50 mM Tris pH=7.4, 1% glycerol, 0.03% Brij35, 0.24 mM EGTA, 1 mM DTT, and 0.003% BSA). Enzyme is added to initiate the reaction and incubated for 60 min at RT. In subdued light, appropriate amount of PT66 donor and acceptor beads (diluted 1:260 from manufacturer's provision in a 25 mM Tris HCl (pH=7.5), 400 mM NaCl, 100 mM EDTA, 0.3% BSA buffer) are added to the wells. The plates, incubated for 1 h, are read on an AlphaQuest plate reader
On the technique in general: Alpha assays give light when donor and acceptor beads are brought close together.

RON (human), sequence (Q04912 25-1400): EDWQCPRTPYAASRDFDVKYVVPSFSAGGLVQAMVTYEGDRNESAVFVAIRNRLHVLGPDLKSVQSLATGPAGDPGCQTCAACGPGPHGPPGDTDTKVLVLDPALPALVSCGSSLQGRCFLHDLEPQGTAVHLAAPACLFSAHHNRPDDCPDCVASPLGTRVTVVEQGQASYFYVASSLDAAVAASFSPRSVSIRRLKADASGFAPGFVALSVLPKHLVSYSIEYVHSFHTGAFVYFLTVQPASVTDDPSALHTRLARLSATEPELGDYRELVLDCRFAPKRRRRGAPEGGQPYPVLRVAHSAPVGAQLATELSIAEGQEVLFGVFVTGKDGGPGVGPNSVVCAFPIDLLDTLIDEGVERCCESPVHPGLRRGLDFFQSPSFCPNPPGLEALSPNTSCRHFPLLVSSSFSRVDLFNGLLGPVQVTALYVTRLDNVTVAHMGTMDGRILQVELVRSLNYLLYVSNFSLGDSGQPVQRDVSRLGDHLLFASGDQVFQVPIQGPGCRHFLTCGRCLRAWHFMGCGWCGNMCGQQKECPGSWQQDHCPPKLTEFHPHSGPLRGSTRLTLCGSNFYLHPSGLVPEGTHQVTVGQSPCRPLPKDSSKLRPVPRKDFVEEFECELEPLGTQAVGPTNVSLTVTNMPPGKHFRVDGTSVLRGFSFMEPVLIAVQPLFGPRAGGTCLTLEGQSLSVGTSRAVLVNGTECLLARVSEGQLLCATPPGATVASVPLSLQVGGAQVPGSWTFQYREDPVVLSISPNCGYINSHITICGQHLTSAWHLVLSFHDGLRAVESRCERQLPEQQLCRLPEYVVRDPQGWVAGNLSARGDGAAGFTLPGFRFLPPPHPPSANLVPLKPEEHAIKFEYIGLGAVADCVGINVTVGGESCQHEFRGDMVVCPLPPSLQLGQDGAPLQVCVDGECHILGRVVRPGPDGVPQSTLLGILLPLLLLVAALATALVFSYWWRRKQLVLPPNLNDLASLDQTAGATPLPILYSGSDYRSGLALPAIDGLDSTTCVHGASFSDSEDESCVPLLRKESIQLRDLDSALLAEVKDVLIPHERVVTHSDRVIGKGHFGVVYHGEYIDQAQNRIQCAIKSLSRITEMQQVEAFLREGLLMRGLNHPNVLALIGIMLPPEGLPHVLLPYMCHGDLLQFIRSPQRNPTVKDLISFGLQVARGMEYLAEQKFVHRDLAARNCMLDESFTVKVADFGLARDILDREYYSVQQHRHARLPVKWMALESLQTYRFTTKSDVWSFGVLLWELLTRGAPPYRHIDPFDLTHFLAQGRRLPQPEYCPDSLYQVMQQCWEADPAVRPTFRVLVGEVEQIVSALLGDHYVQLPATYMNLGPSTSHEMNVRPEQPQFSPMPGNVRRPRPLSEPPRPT

Consider `Nc1ncc(-c2cnn(C3CCNCC3)c2)cc1-c1cc2cc(F)cc(Cl)c2cn1` [Example 47, 3-(8-Chloro-6-fluoroisoquinolin-3-yl)-5-(1-piperidin-4-yl-1H-pyrazol-4-yl)-pyridin-2-ylamine trihydrochloride salt], for which the IC50 in assay [1] and in assay [2] was 100 to 1000 nM each time.
For the molecule `Nc1ncc(-c2cnn(C3CCNCC3)c2)cc1-c1cc2c(-c3ccco3)ccc(F)c2cn1` [Example 48, 3-(8-Fluoro-5-furan-2-ylisoquinolin-3-yl)-5-(1-piperidin-4-yl-1H-pyrazol-4-yl)-pyridin-2-ylamine], the IC50 in assay [1] and in assay [2] was 100 to 1000 nM throughout.
On to `Nc1ncc(-c2cnn(C3CCNCC3)c2)cc1-c1cc2c(-c3ccoc3)ccc(F)c2cn1` [Example 49, 3-(8-Fluoro-5-furan-3-ylisoquinolin-3-yl)-5-(1-piperidin-4-yl-1H-pyrazol-4-yl)-pyridin-2-ylamine trihydrochloride], for which the IC50 is 100 to 1000 nM in assay [1] and no more than 100 nM in assay [2].
With `Nc1ncc(-c2cnn(C3CCNCC3)c2)cc1-c1cc2c(-c3ccccc3)ccc(F)c2cn1` [Example 50, 3-(8-Fluoro-5-phenylisoquinolin-3-yl)-5-(1-piperidin-4-yl-1H-pyrazol-4-yl)-pyridin-2-ylamine], the IC50 in assay [1] and in assay [2] was 100 to 1000 nM each time.
On to `Nc1ncc(-c2cnn(C3CCNCC3)c2)cc1-c1cc2c(-c3cn[nH]c3)ccc(F)c2cn1` [Example 51, 3-[8-Fluoro-5-(1H-pyrazol-4-yl)-isoquinolin-3-yl]-5-(1-piperidin-4-yl-1H-pyrazol-4-yl)-pyridin-2-ylamine trihydrochloride], for which the IC50 in assay [1] and in assay [2] was no more than 100 nM each time.
`Cn1cc(-c2ccc(F)c3cnc(-c4cc(-c5cnn(C6CCNCC6)c5)cnc4N)cc23)cn1` [Example 52, 3-[8-Fluoro-5-(1-methyl-1H-pyrazol-4-yl)-isoquinolin-3-yl]-5-(1-piperidin-4-yl-1H-pyrazol-4-yl)-pyridin-2-ylamine trihydrochloride]: the IC50 in assay [1] and in assay [2] was no more than 100 nM each time.
Consider `Nc1ncc(-c2cnn(C3CCNCC3)c2)cc1-c1cc2c(-c3ccc[nH]3)ccc(F)c2cn1` [Example 53, 3-[8-Fluoro-5-(1H-pyrrol-2-yl)-isoquinolin-3-yl]-5-(1-piperidin-4-yl-1H-pyrazol-4-yl)-pyridin-2-ylamine], for which the half-maximal inhibitory concentration (IC50) in assay [1] and in assay [2] was 100 to 1000 nM in each case.
For the molecule `Nc1ncc(-c2cnn(C3CCNCC3)c2)cc1-c1cc2c(-c3cccnc3)ccc(F)c2cn1` [Example 54, 3-(8-Fluoro-5-pyridin-3-ylisoquinolin-3-yl)-5-(1-piperidin-4-yl-1H-pyrazol-4-yl)-pyridin-2-ylamine trihydrochloride pyridin-2-ylamine trihydrochloride], the IC50 in assay [1] lay in the range of 1000 to 20000 nM; in assay [2], 100 to 1000 nM.
Regarding `Nc1ncc(-c2cnn(C3CCNCC3)c2)cc1-c1cc2c(-c3nccs3)ccc(F)c2cn1` [Example 55, 3-(8-Fluoro-5-thiazol-2-ylisoquinolin-3-yl)-5-(1-piperidin-4-yl-1H-pyrazol-4-yl)-pyridin-2-ylamine trihydrochloride], the IC50 was in the range of 1000 to 20000 nM in assay [1] and 100 to 1000 nM in assay [2].
For the molecule `Nc1ncc(-c2cnn(C3CCNCC3)c2)cc1-c1cc2c(-c3cncs3)ccc(F)c2cn1` [Example 56, 3-(8-Fluoro-5-thiazol-5-ylisoquinolin-3-yl)-5-(1-piperidin-4-yl-1H-pyrazol-4-yl)-pyridin-2-ylamine trihydrochloride], the IC50 in assay [1] and in assay [2] was 100 to 1000 nM in each case.
Consider `Nc1ncc(-c2cnn(C3CCN(C=O)CC3)c2)cc1-c1cc2c(Cl)ccc(F)c2cn1` [Example 57, 4-4-[6-Amino-5-(5-chloro-8-fluoroisoquinolin-3-yl)-pyridin-3-yl]-pyrazol-1-ylpiperidine-1-carbaldehyde], for which the IC50 in assay [1] fell in the range of 1000 to 20000 nM; in assay [2], 100 to 1000 nM.
For `CN1CCC(n2cc(-c3cnc(N)c(-c4cc5c(Cl)ccc(F)c5cn4)c3)cn2)CC1` [Example 58, 3-(5-Chloro-8-fluoroisoquinolin-3-yl)-5-[1-(1-methylpiperidin-4-yl)-1H-pyrazol-4-yl]-pyridin-2-ylamine], the concentration for half-maximal inhibition (IC50) in assay [1] and in assay [2] was 100 to 1000 nM in each case.
As for `CN1CCN(c2ncc(-c3cnc(N)c(-c4cc5c(Cl)ccc(F)c5cn4)c3)s2)CC1` [Example 60, 3-(5-Chloro-8-fluoroisoquinolin-3-yl)-5-[2-(4-methylpiperazin-1-yl)-thiazol-5-yl]-pyridin-2-ylamine trihydrochloride], the IC50 in assay [1] and in assay [2] was 1000 to 20000 nM each time.
Take `Nc1ncc(-c2cnc(N3CCOCC3)s2)cc1-c1cc2c(Cl)ccc(F)c2cn1` [Example 61, 3-(5-Chloro-8-fluoroisoquinolin-3-yl)-5-(2-morpholin-4-ylthiazol-5-yl)-pyridin-2-ylamine]: the concentration for half-maximal inhibition (IC50) in assay [1] and in assay [2] was greater than 20000 nM throughout.
Turning to `Nc1ncc(-c2cnn([C@@H]3CCNC3)c2)cc1-c1cc2c(Cl)ccc(F)c2cn1` [Example 62, 3-(5-Chloro-8-fluoroisoquinolin-3-yl)-5-((R)-1-pyrrolidin-3-yl-1H-pyrazol-4-yl)-pyridin-2-ylamine trihydrochloride], the IC50 in assay [1] and in assay [2] was 100 to 1000 nM in each case.
With `Nc1ncc(-c2cnn([C@H]3CCNC3)c2)cc1-c1cc2c(Cl)ccc(F)c2cn1` [Example 63, 3-(5-Chloro-8-fluoroisoquinolin-3-yl)-5-((S)-1-pyrrolidin-3-yl-1H-pyrazol-4-yl)-pyridin-2-ylamine trihydrochloride], the IC50 in assay [1] and in assay [2] was 100 to 1000 nM throughout.
For the molecule `CN1C2CCC1CC(n1cc(-c3cnc(N)c(-c4cc5c(Cl)ccc(F)c5cn4)c3)cn1)C2` (stereo not shown) [Example 64, 3-(5-Chloro-8-fluoroisoquinolin-3-yl)-5-[1-(8-methyl-8-azabicyclo [3.2.1]-oct-3-yl)-1H-pyrazol-4-yl]-pyridin-2-ylamine], the IC50 in assay [1] and in assay [2] was 100 to 1000 nM throughout.
`Cn1cc(-c2cnc(N)c(-c3cc4c(Cl)ccc(F)c4cn3)c2)cn1` [Example 65, 3-(5-Chloro-8-fluoroisoquinolin-3-yl)-5-(1-methyl-1H-pyrazol-4-yl)-pyridin-2-ylamine bis-hydrochloride]: the IC50 in assay [1] and in assay [2] was 1000 to 20000 nM each time.
`CC(C)n1cc(-c2cnc(N)c(-c3cc4c(Cl)ccc(F)c4cn3)c2)cn1` [Example 66, 3-(5-Chloro-8-fluoroisoquinolin-3-yl)-5-(1-isopropyl-1H-pyrazol-4-yl)-pyridin-2-ylamine bis-hydrochloride]: the IC50 in assay [1] and in assay [2] was 1000 to 20000 nM in each case.
`CN(C)C(=O)N1CCC(n2cc(-c3cnc(N)c(-c4cc5c(Cl)ccc(F)c5cn4)c3)cn2)CC1` [Example 67, 4-4-[6-Amino-5-(5-chloro-8-fluoroisoquinolin-3-yl)-pyridin-3-yl]-pyrazol-1-ylpiperidine-1-carboxylic acid dimethylamide bis-hydrochloride]: the IC50 in assay [1] and in assay [2] was 100 to 1000 nM in each case.
For the molecule `NC(=O)N1CCC(n2cc(-c3cnc(N)c(-c4cc5c(Cl)ccc(F)c5cn4)c3)cn2)CC1` [Example 68, 4-4-[6-Amino-5-(5-chloro-8-fluoroisoquinolin-3-yl)-pyridin-3-yl]-pyrazol-1-ylpiperidine-1-carboxamide bis-hydrochloride], the IC50 in assay [1] and in assay [2] was 100 to 1000 nM in each case.
Consider `Nc1ncc(-c2cnn(C3CCN(CC(F)(F)F)CC3)c2)cc1-c1cc2c(Cl)ccc(F)c2cn1` [Example 69, 3-(5-Chloro-8-fluoroisoquinolin-3-yl)-5-1-[1-(2,2,2-trifluoroethyl)-piperidin-4-yl]-1H-pyrazol-4-yl-pyridin-2-ylamine bis-hydrochloride], for which the IC50 in assay [1] and in assay [2] was 1000 to 20000 nM throughout.
Turning to `COCCN1CCC(n2cc(-c3cnc(N)c(-c4cc5c(Cl)ccc(F)c5cn4)c3)cn2)CC1` [Example 70, 3-(5-Chloro-8-fluoroisoquinolin-3-yl)-5-1-[1-(2-methoxyethyl)-piperidin-4-yl]-1H-pyrazol-4-yl-pyridin-2-ylamine], the results for the IC50 in assay [1] and in assay [2] were 1000 to 20000 nM and 100 to 1000 nM, respectively.

By IC50 is commonly meant the midpoint of a concentration-inhibition curve.
